What all share (type): cell-based
One assay deals with ERK-2. Put plainly: Western blot analysis of treated cell lysates with ERK-2 antibody. The following applies: 2.5 and 5.0 μM, 48 hours; NIH3T3, LnCaP or MCF-7. How it is done:
Cell lysates of FRI-20-treated cells were prepared for Western Blot analysis as follows. NIH3T3, LnCaP or MCF-7 cells were seeded at a density of 2×10^5 cells/per well in a six-well plate and allowed to grow for 24 hours. Fresh medium was added to each well 2 hours before treatment with FRI-20. The compound was dissolved in DMSO to make a 2 mM stock solution and added to the medium (2 ml) to obtain a final concentration of 2.5 and 5.0 μM. After 48 hours at 37° C., the cells were washed twice with 10 ml of ice cold phosphate-buffered saline and harvested in 400 μl of lysis buffer containing 25 mM HEPES (pH 7.6), 0.1% Triton X-100, 300 mM NaCl, 1.5 mM MgCl2, 20 mM β-glycerophosphate, 100 μM Na3VO4, 0.2 mM EDTA, 0.5 mM dithiothreitol, 2 μg/ml aprotinin, 2 μg/ml leupeptin, 100 μM […] and 1 mM benzamidine. The cell lysates were kept on ice for 30 minutes and centrifuged for 10 minutes in a microcentrifuge (16000 X g). The cell lysates were separated from the debris and normalized for protein content.
Western Blot analysis was carried out on the drug- and mock-treated cell lysates with ERK-2 antibody. Equal amounts of total protein (100 μg) were loaded in each lane of a SDS-PAGE gel (10-12%) and transferred to Immobilon-P (Millipore, USA). […] The antibody was detected using the ECL Western blotting analysis kit (Amersham) following the manufacturer's instructions.
Background: In western blotting, separated proteins are transferred to a membrane and probed.

For assay [1], the system named is LnCaP prostate tumor cell line. In words: Trypan blue exclusion viability assay, prostate tumor cell line. Details: unit of the concentration uncertain. The following applies: 48 hours. The method, then:
(§1) The effect of FR-20 on the growth of normal and tumor cells of breast and prostate was examine utilizing nine cell lines: NIH/3T3 and HFL (normal fibroblast cell lines); MCF-7 and 361 ([…] breast tumor cell lines); BT-20, 435 and SKBR-3 ([…] breast tumor cell lines); LnCaP (androgen sensitive prostate tumor cell line); PC-3 and DU-145 (androgen insensitive prostate tumor cell line).
(§2) The cells were grown as in Example 22, A. FR-20 was dissolved in DMSO and added to the cells at 2.5 μM and 5.0 μM concentration. To control cells, DMSO was added equivalent to the volume of solvent (DMSO) present at the highest concentration of the compound. The activity of the compound was evaluated after 48 hours by Trypan blue exclusion. […] Nearly 50% of SKBR-3 and BT-20 cells were dead at 2.5 μM and 75% at 5.0 μM concentration of the compound. […] FRI-20 had profound effect on the viability of androgen-dependent LnCaP prostate tumor cell line when compared to androgen-independent DU-145 and PC-3 prostate cell lines. At […] FRI-20, 80% of LnCaP, 40% of PC-3 and 20% of DU-145 cells were killed. At […] FRI-20, 72% of LnCaP, 47% of PC-3 and 40% of DU-145 were killed (FIG. 3B).

The subject of another assay is PC-3 cells. Described as above. Details: unit of the concentration uncertain. The following applies: 48 hours. The method, then: as §1, §2
For a further assay, the system named is DU-145 cells. Described as above. On the set-up: unit of the concentration uncertain. Particulars: 48 hours. The method, then: as §1, §2

One compound from patent US6548553B2, “Styryl sulfone anticancer agents” (Temple University-of the Commonwealth System of Higher …, priority 1997, dated 2003) can be followed below.

Molecules are shown by their SMILES.

For `O=S(=O)(/C=C/c1ccc(F)cc1)Cc1ccc(Cl)cc1` [Example 11, E-4-fluorostyryl 4-chlorobenzyl Sulfone], the “amount of ERK-2 protein in drug- and mock-treated lysates” value in the assay with ERK-2 is given as “the same amount of protein in both lysates”. Further, the cells killed in assay [1] (2.5 µM) is reported as 80%; in assay [1] (5.0 µM) it was 72%; in the assay on PC-3 cells (2.5 µM), 40%; in the assay with PC-3 cells (5.0 µM) it was 47%; in the assay on DU-145 cells (2.5 µM), 20%; with DU-145 cells (5.0 µM), 40%.
